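These data come from cells grown in 96-well plates and exposed to compound for 48 hours at five concentrations. Abbreviation: GI50, concentration required for 50% inhibition of growth. Definition used: TGI = concentration required for complete inhibition of growth.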
What was measured:
Experiment in all cases: inhibition of tumour cell growth, NCI panel, 48 h
MOLT-4 leukemia = tested on: MOLT-4 leukemia
DU-145 prostate = tested on: DU-145 prostate
HOP-62 NSCLC = tested on: HOP-62 NSCLC
OVCAR-4 ovarian = tested on: OVCAR-4 ovarian
ACHN renal = tested on: ACHN renal
UO-31 renal = tested on: UO-31 renal
HCT-116 colon = tested on: HCT-116 colon
OVCAR-3 ovarian = tested on: OVCAR-3 ovarian
RXF 393 renal = tested on: RXF 393 renal
NCI/ADR-RES ovarian = tested on: NCI/ADR-RES ovarian
SNB-19 CNS = tested on: SNB-19 CNS
SR leukemia = tested on: SR leukemia
SK-MEL-28 melanoma = tested on: SK-MEL-28 melanoma
NCI-H226 lung = tested on: NCI-H226 lung
A498 renal = tested on: A498 renal
LOX IMVI melanoma = tested on: LOX IMVI melanoma
MCF7 breast = tested on: MCF7 breast
MDA-MB-231 breast = tested on: MDA-MB-231 breast
HS 578T breast = tested on: HS 578T breast
SK-MEL-2 melanoma = tested on: SK-MEL-2 melanoma
EKVX NSCLC = tested on: EKVX NSCLC
UACC-257 melanoma = tested on: UACC-257 melanoma
NCI-H522 lung = tested on: NCI-H522 lung
HOP-92 NSCLC = tested on: HOP-92 NSCLC
K-562 leukemia = tested on: K-562 leukemia
TK-10 renal = tested on: TK-10 renal
786-0 renal = tested on: 786-0 renal
SF-539 CNS = tested on: SF-539 CNS
NCI-H460 lung = tested on: NCI-H460 lung
IGROV1 ovarian = tested on: IGROV1 ovarian
CCRF-CEM leukemia = tested on: CCRF-CEM leukemia
HCC-2998 colon = tested on: HCC-2998 colon
OVCAR-5 ovarian = tested on: OVCAR-5 ovarian
U251 CNS = tested on: U251 CNS
CAKI-1 renal = tested on: CAKI-1 renal
SW-620 colon = tested on: SW-620 colon
PC-3 prostate = tested on: PC-3 prostate
HL-60(TB) leukemia = tested on: HL-60(TB) leukemia
OVCAR-8 ovarian = tested on: OVCAR-8 ovarian
MDA-MB-435 = tested on: MDA-MB-435
SF-268 CNS = tested on: SF-268 CNS
BT-549 breast = tested on: BT-549 breast
M14 melanoma = tested on: M14 melanoma
MDA-MB-468 breast = tested on: MDA-MB-468 breast
T-47D breast = tested on: T-47D breast
SF-295 CNS = tested on: SF-295 CNS
SN12C renal = tested on: SN12C renal
HT29 colon = tested on: HT29 colon
SNB-75 CNS = tested on: SNB-75 CNS
SK-OV-3 ovarian = tested on: SK-OV-3 ovarian
RPMI-8226 leukemia = tested on: RPMI-8226 leukemia
MALME-3M melanoma = tested on: MALME-3M melanoma
COLO 205 colon = tested on: COLO 205 colon
KM12 colon = tested on: KM12 colon
HCT-15 colon = tested on: HCT-15 colon
NCI-H23 lung = tested on: NCI-H23 lung
UACC-62 melanoma = tested on: UACC-62 melanoma
SK-MEL-5 melanoma = tested on: SK-MEL-5 melanoma
A549 NSCLC = tested on: A549 NSCLC

O=C1Nc2cc(-c3ccc(NS(=O)(=O)c4ccc(C(F)(F)F)cc4)cc3)ccc2/C1=C/c1ccc[nH]1
GI50 (MOLT-4 leukemia): 2490 nM | TGI (MOLT-4 leukemia): 10800 nM | GI50 (DU-145 prostate): 1870 nM | TGI (DU-145 prostate): 4000 nM | GI50 (HOP-62 NSCLC): 1660 nM | TGI (HOP-62 NSCLC): 4700 nM | GI50 (OVCAR-4 ovarian): 1100 nM | TGI (OVCAR-4 ovarian): 7330 nM | GI50 (ACHN renal): 2190 nM | TGI (ACHN renal): 5310 nM | GI50 (UO-31 renal): 1510 nM | TGI (UO-31 renal): 10300 nM | GI50 (HCT-116 colon): 1820 nM | TGI (HCT-116 colon): 3460 nM | GI50 (OVCAR-3 ovarian): 1430 nM | TGI (OVCAR-3 ovarian): 2920 nM | GI50 (RXF 393 renal): 1960 nM | TGI (RXF 393 renal): 4370 nM | GI50 (NCI/ADR-RES ovarian): 2590 nM | TGI (NCI/ADR-RES ovarian): 8600 nM | GI50 (SNB-19 CNS): 2530 nM | TGI (SNB-19 CNS): 11300 nM | GI50 (SR leukemia): 1970 nM | TGI (SR leukemia): 7000 nM | GI50 (SK-MEL-28 melanoma): 2260 nM | TGI (SK-MEL-28 melanoma): 5680 nM | GI50 (NCI-H226 lung): 1100 nM | TGI (NCI-H226 lung): 6790 nM | GI50 (A498 renal): 1990 nM | TGI (A498 renal): 7780 nM | GI50 (LOX IMVI melanoma): 1630 nM | TGI (LOX IMVI melanoma): 2980 nM | GI50 (MCF7 breast): 81.8 nM | TGI (MCF7 breast): 1470 nM | GI50 (MDA-MB-231 breast): 2280 nM | TGI (MDA-MB-231 breast): 8290 nM | GI50 (HS 578T breast): 1960 nM | TGI (HS 578T breast): 10300 nM | GI50 (SK-MEL-2 melanoma): 3140 nM | TGI (SK-MEL-2 melanoma): 12200 nM | GI50 (EKVX NSCLC): 123 nM | TGI (EKVX NSCLC): 4130 nM | GI50 (UACC-257 melanoma): 2390 nM | TGI (UACC-257 melanoma): 7330 nM | GI50 (NCI-H522 lung): 1440 nM | TGI (NCI-H522 lung): 3320 nM | GI50 (HOP-92 NSCLC): 1100 nM | TGI (HOP-92 NSCLC): 3790 nM | GI50 (K-562 leukemia): 2480 nM | TGI (K-562 leukemia): 11000 nM | GI50 (TK-10 renal): 1270 nM | TGI (TK-10 renal): 6710 nM | GI50 (786-0 renal): 2550 nM | TGI (786-0 renal): 6540 nM | GI50 (SF-539 CNS): 1430 nM | TGI (SF-539 CNS): 3260 nM | GI50 (NCI-H460 lung): 437 nM | TGI (NCI-H460 lung): 1770 nM | GI50 (IGROV1 ovarian): 3310 nM | TGI (IGROV1 ovarian): 15000 nM | GI50 (CCRF-CEM leukemia): 2270 nM | TGI (CCRF-CEM leukemia): 6820 nM | GI50 (HCC-2998 colon): 1910 nM | TGI (HCC-2998 colon): 4920 nM | GI50 (OVCAR-5 ovarian): 1800 nM | TGI (OVCAR-5 ovarian): 7060 nM | GI50 (U251 CNS): 1610 nM | TGI (U251 CNS): 3120 nM | GI50 (CAKI-1 renal): 2570 nM | TGI (CAKI-1 renal): 11100 nM | GI50 (SW-620 colon): 1870 nM | TGI (SW-620 colon): 3680 nM | GI50 (PC-3 prostate): 1570 nM | TGI (PC-3 prostate): 4830 nM | GI50 (HL-60(TB) leukemia): 2900 nM | TGI (HL-60(TB) leukemia): 10700 nM | GI50 (OVCAR-8 ovarian): 1910 nM | TGI (OVCAR-8 ovarian): 4070 nM | GI50 (MDA-MB-435): 1860 nM | TGI (MDA-MB-435): 3950 nM | GI50 (SF-268 CNS): 1720 nM | TGI (SF-268 CNS): 3860 nM | GI50 (BT-549 breast): 1960 nM | TGI (BT-549 breast): 5540 nM | GI50 (M14 melanoma): 3110 nM | TGI (M14 melanoma): 13000 nM | GI50 (MDA-MB-468 breast): 31.1 nM | TGI (MDA-MB-468 breast): 309 nM | GI50 (T-47D breast): 230 nM | TGI (T-47D breast): 3860 nM | GI50 (SF-295 CNS): 2040 nM | TGI (SF-295 CNS): 4670 nM | GI50 (SN12C renal): 1590 nM | TGI (SN12C renal): 3170 nM | GI50 (HT29 colon): 2210 nM | TGI (HT29 colon): 5140 nM | GI50 (SNB-75 CNS): 2290 nM | TGI (SNB-75 CNS): 13300 nM | GI50 (SK-OV-3 ovarian): 2200 nM | TGI (SK-OV-3 ovarian): 11600 nM | GI50 (RPMI-8226 leukemia): 1330 nM | TGI (RPMI-8226 leukemia): 4250 nM | GI50 (MALME-3M melanoma): 3050 nM | TGI (MALME-3M melanoma): 13600 nM | GI50 (COLO 205 colon): 2420 nM | TGI (COLO 205 colon): 8250 nM | GI50 (KM12 colon): 1940 nM | TGI (KM12 colon): 7830 nM | GI50 (HCT-15 colon): 1420 nM | TGI (HCT-15 colon): 3260 nM | GI50 (NCI-H23 lung): 1070 nM | TGI (NCI-H23 lung): 2830 nM | GI50 (UACC-62 melanoma): 2130 nM | TGI (UACC-62 melanoma): 9730 nM | GI50 (SK-MEL-5 melanoma): 4130 nM | TGI (SK-MEL-5 melanoma): 15600 nM | GI50 (A549 NSCLC): 1310 nM | TGI (A549 NSCLC): 2920 nM
